In the NIST ThermoML archive (doi:10.1021/je900370q):
± gives the expanded uncertainty stated by the source.

conditions: Crystal; DTA

SMILES	Normal melting temperature [°C]
O=C(/C=C/c1ccc(-c2cccc([N+](=O)[O-])c2)o1)c1ccc(Cl)cc1	170.00 ± 1
O=C(/C=C/c1ccc(-c2cccc([N+](=O)[O-])c2)o1)c1ccccc1 [(E)-3-(5-(3-nitrophenyl)furan-2-yl)-1-phenylprop-2-en-1-one]	142.00 ± 1
O=C(/C=C/c1ccc(-c2cccc([N+](=O)[O-])c2)o1)c1ccc([N+](=O)[O-])cc1	218.00 ± 1
O=C(/C=C/c1ccc(-c2cccc([N+](=O)[O-])c2)o1)c1ccc(O)cc1	152.00 ± 1
O=C(/C=C/c1ccc(-c2cccc([N+](=O)[O-])c2)o1)c1cc2ccccc2oc1=O	172.00 ± 1
O=C(/C=C/c1ccc(-c2cccc([N+](=O)[O-])c2)o1)c1ccc(Br)cc1	160.00 ± 1

Second part, the compound after the results:

Normal melting temperature [°C]	SMILES
180.00 ± 1	O=C(/C=C/c1ccc(-c2cccc([N+](=O)[O-])c2)o1)c1cccc([N+](=O)[O-])c1
141.00 ± 1	COc1ccc(C(=O)/C=C/c2ccc(-c3cccc([N+](=O)[O-])c3)o2)cc1
178.00 ± 1	O=C(/C=C/c1ccc(-c2cccc([N+](=O)[O-])c2)o1)c1ccco1
171.00 ± 1	Nc1ccc(C(=O)/C=C/c2ccc(-c3cccc([N+](=O)[O-])c3)o2)cc1
